Experimental data from patent US20040116420A1 (priority 2001, published 2004).

What was measured:
HSV-1 protease = biological target: T1, HSV-1 protease (Human herpesvirus 1, UniProt P10210); experiment: Enzymatic assay for HSV-1 protease (assembly) inhibitor, fluorescence polarization; assay type: biochemical; settings: read-out: HSV-1 Enzyme inhibition IC50
T1 construct: 6xHis (N); made in house; host or cells: baculovirus expression system
Summary of the method: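 His6-tagged HSV-1 UL26 protease, baculovirus-expressed, preincubated 30 min at RT with compound in 1 M citrate/phosphate buffer pH 7.4 with 20% glycerol and 2 mM TCEP. A biotin-HTYLQA*SERFRIK-DTAF substrate was then cleaved for 60 min at RT, stopped with avidin, and read by fluorescence polarization versus no-inhibitor control.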

HSV-1 = experiment: Antiviral activity, HSV-1 in Vero cells, plaque method; assay type: cell-based; settings: Human alphaherpesvirus 1, 20 hours, 90% inhibition of plaque formation
Summary of the method: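 HSV-1 (50,000 pfu in 2% FBS-DMEM) was added to Vero cells and removed, then the compound was applied in 2% FBS-DMEM for 20 h at 37° C, 5% CO2. After a freeze-thaw, virus yield in the medium was titred by plaque assay. EC90 is the concentration giving 90% plaque reduction versus the compound-free control.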

Vero cells = experiment: Cytotoxicity, Vero cells, Alamar Blue; assay type: cell-based; settings: 25 μM, 20 hours
Protocol: An Assay Method for Cytotoxicity
The Vero cells were sown on a 96-well plate and then cultured overnight. The culture supernatant was removed, and 200 μl of 2% FBS-DMEM comprising 25 μM of the test compound was added. In this case, a substance to which 2% FBS-DMEM not comprising any test compound had been added was determined as a control. These cells were incubated in the presence of 5% CO2 at 37° C. for 20 hours. Alamar Blue (20 μl) was added to the cells, and cells were incubated for about 6 hours until the color of the control changed. The ratio of the absorbance was assayed using a microplate reader for absorption, and the value relative to the control was determined to be the ratio of living cells.

T1 sequence (P10210 1-247): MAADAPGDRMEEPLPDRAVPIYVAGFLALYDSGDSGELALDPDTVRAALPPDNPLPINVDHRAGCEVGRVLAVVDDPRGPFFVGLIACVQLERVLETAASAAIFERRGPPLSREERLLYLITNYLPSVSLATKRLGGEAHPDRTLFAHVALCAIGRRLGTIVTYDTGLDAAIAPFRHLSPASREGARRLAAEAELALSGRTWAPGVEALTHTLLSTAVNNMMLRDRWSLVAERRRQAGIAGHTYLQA

| Structure (SMILES) | IC50 (HSV-1 protease) [µM] | EC90 (HSV-1) [µM] | Cell viability (% of control) (Vero cells) [%] |
| --- | --- | --- | --- |
| Cc1c(NC(=O)OC(C)(C)C)ccc2nc(N[C@@H](CC(C)C)C(=O)N(C)CCc3ccncc3)oc(=O)c12 [Compound No.54, (5-Methyl-2-{3-methyl-1S-[methyl-(2-pyridin-4-yl-ethyl)-carbamoyl]-butylamino}-4-oxo-4H-benzo[d][1,3]oxazin-6-yl)-carbamic acid tert-butyl ester] | 1.8 | 6.2 | 62.8 |
| Cc1c(NC(=O)OC(C)(C)C)ccc2nc(N[C@@H](CC3CCCCC3)C(=O)N(C)CCc3ccncc3)oc(=O)c12 [Compound No.55, (2-{2-Cyclohexyl-1S-[methyl-(2-pyridin-4-yl-ethyl)-carbamoyl]-ethylamino}-5-methyl-4-oxo-4H-benzo[d][1,3]oxazin-6-yl)-carbamic acid tert-butyl ester] | 7.4 | 5.9 | 43.8 |
| Cc1c(NC(=O)OC(C)(C)C)ccc2nc(N[C@H](C(=O)N(C)Cc3ccccn3)C(C)(C)C)oc(=O)c12 [Compound No.60, {2-[2,2-Dimethyl-1S-(methyl-pyridin-2-ylmethyl-carbamoyl)-propylamino]-5-methyl-4-oxo-4H-benzo[d][1,3]oxazin-6-yl}-carbamic acid tert-butyl ester] | 26.9 | 4.7 | 89.6 |
| Cc1c(NC(=O)OC(C)(C)C)ccc2nc(N[C@@H](CC(C)C)C(=O)N(C)Cc3ccccn3)oc(=O)c12 [Compound No.62, {5-Methyl-2-[3-methyl-1S-(methyl-pyridin-2-ylmethyl-carbamoyl)-butylamino]-4-oxo-4H-benzo[d][1,3]oxazin-6-yl}-carbamic acid tert-butyl ester] | 2.4 | 4.7 | 83.9 |
| Cc1c(NC(=O)OC(C)(C)C)ccc2nc(N[C@@H](Cc3ccccc3)C(=O)N(C)CCc3cccnc3)oc(=O)c12 [Compound No.64, (5-Methyl-2-{1S-[methyl-(2-pyridin-3-yl-ethyl)-carbamoyl]-2-phenyl-ethylamino}-4-oxo-4H-benzo[d][1,3]oxazin-6-yl)-carbamic acid tert-butyl ester] | 0.8 | 5.1 | 70.1 |
| Cc1c(NC(=O)OC(C)(C)C)ccc2nc(N(C)[C@@H](C)C(=O)NCc3ccncc3)oc(=O)c12 [Compound No.73, [5-Methyl-2-(methyl-{1S-[(pyridin-4-ylmethyl)-carbamoyl]-ethyl}-amino)-4-oxo-4H-benzo[d][1,3]oxazin-6-yl]-carbamic acid tert-butyl ester] | 1 | > 12.5 | 79.8 |
| Cc1c(NC(=O)OC(C)(C)C)ccc2nc(N(C)[C@@H](C)C(=O)N(C)Cc3ccccn3)oc(=O)c12 [Compound No.75, (5-Methyl-2-{methyl-[1S-(methyl-pyridin-2-ylmethyl-carbamoyl)-ethyl]-amino}-4-oxo-4H-benzo[d][1,3]oxazin-6-yl)-carbamic acid tert-butyl ester] | 2.2 | > 12.5 | 93.1 |
| Cc1c(NC(=O)OC(C)(C)C)ccc2nc(N(C)[C@@H](C)C(=O)N(C)CCc3ccccn3)oc(=O)c12 [Compound No.76, [5-Methyl-2-(methyl-{1S-[methyl-(2-pyridin-2-yl-ethyl)-carbamoyl]-ethyl}-amino)-4-oxo-4H-benzo[d][1,3]oxazin-6-yl]-carbamic acid tert-butyl ester] | 2.1 | > 12.5 | 87.9 |

The next lines start with results.

| IC50 (HSV-1 protease) [µM] | EC90 (HSV-1) [µM] | Structure (SMILES) | Cell viability (% of control) (Vero cells) [%] |
| --- | --- | --- | --- |
| 3.2 | 3.7 | Cc1c(NC(=O)OC(C)(C)C)ccc2nc(N[C@@H](CCc3ccccc3)C(=O)N(C)CCc3ccncc3)oc(=O)c12 [Compound No.56, (5-Methyl-2-{1S-[methyl-(2-pyridin-4-yl-ethyl)-carbamoyl]-3-phenyl-propylamino}-4-oxo-4H-benzo[d][1,3]oxazin-6-yl)-carbamic acid tert-butyl ester] | 77.9 |
| 1.7 | < 3.2 | Cc1c(NC(=O)OC(C)(C)C)ccc2nc(N[C@@H](Cc3ccccc3)C(=O)N(C)Cc3ccccn3)oc(=O)c12 [Compound No.57, {5-Methyl-2-[1S-(methyl-pyridin-2-ylmethyl-carbamoyl)-2-phenyl-ethylamino]-4-oxo-4H-benzo[d][1,3]oxazin-6-yl}-carbamic acid tert-butyl ester] | 71.3 |
| 3.3 | 4.7 | Cc1c(NC(=O)OC(C)(C)C)ccc2nc(N[C@H](C(=O)N(C)Cc3ccccn3)C(C)C)oc(=O)c12 [Compound No.61, {5-Methyl-2-[2-methyl-1S-(methyl-pyridin-2-ylmethyl-carbamoyl)-propylamino]-4-oxo-4H-benzo[d][1,3]oxazin-6-yl}-carbamic acid tert-butyl ester] | 107.0 |
| 1.2 | < 3.2 | Cc1c(NC(=O)OC(C)(C)C)ccc2nc(N[C@@H](CC3CCCCC3)C(=O)N(C)Cc3ccccn3)oc(=O)c12 [Compound No.63, {2-[2-Cyclohexyl-1S-(methyl-pyridin-2-ylmethyl-carbamoyl)-ethylamino]-5-methyl-4-oxo-4H-benzo[d][1,3]oxazin-6-yl}-carbamic acid tert-butyl ester] | 60.1 |
| 14 | 4.6 | Cc1c(NC(=O)OC(C)(C)C)ccc2nc(N[C@H](C(=O)N(C)CCc3cccnc3)C(C)(C)C)oc(=O)c12 [Compound No.66, (2-{2,2-Dimethyl-1S-[methyl-(2-pyridin-3-yl-ethyl)-carbamoyl]-propylamino}-5-methyl-4-oxo-4H-benzo[d][1,3]oxazin-6-yl)-carbamic acid tert-butyl ester] | 81.5 |
| 1.5 | 5.3 | Cc1c(NC(=O)OC(C)(C)C)ccc2nc(N[C@H](C(=O)N(C)CCc3cccnc3)C(C)C)oc(=O)c12 [Compound No.67, (5-Methyl-2-{2-methyl-1S-[methyl-(2-pyridin-3-yl-ethyl)-carbamoyl]-propylamino}-4-oxo-4H-benzo[d][1,3]oxazin-6-yl)-carbamic acid tert-butyl ester] | 96.5 |
| 2 | 6.1 | Cc1c(NC(=O)OC(C)(C)C)ccc2nc(N[C@@H](CC(C)C)C(=O)N(C)CCc3cccnc3)oc(=O)c12 [Compound No.68, (5-Methyl-2-{3-methyl-1S-[methyl-(2-pyridin-3-yl-ethyl)-carbamoyl]-butylamino}-4-oxo-4H-benzo[d][1,3]oxazin-6-yl)-carbamic acid tert-butyl ester] | 66.9 |
| 3.6 | < 3.2 | Cc1c(NC(=O)OC(C)(C)C)ccc2nc(N[C@@H](CC3CCCCC3)C(=O)N(C)CCc3cccnc3)oc(=O)c12 [Compound No.69, (2-{2-Cyclohexyl-1S-[methyl-(2-pyridin-3-yl-ethyl)-carbamoyl]-ethylamino}-5-methyl-4-oxo-4H-benzo[d][1,3]oxazin-6-yl)-carbamic acid tert-butyl ester] | 49.5 |
| 0.9 | < 3.2 | Cc1c(NC(=O)OC(C)(C)C)ccc2nc(N[C@@H](CCc3ccccc3)C(=O)N(C)CCc3cccnc3)oc(=O)c12 [Compound No.70, (5-Methyl-2-{1S-[methyl-(2-pyridin-3-yl-ethyl)-carbamoyl]-3-phenyl-propylamino}-4-oxo-4H-benzo[d][1,3]oxazin-6-yl)-carbamic acid tert-butyl ester] | 48.0 |
| 0.8 | > 12.5 | Cc1c(NC(=O)OC(C)(C)C)ccc2nc(N(C)[C@@H](C)C(=O)NCc3ccccn3)oc(=O)c12 [Compound No.71, [5-Methyl-2-(methyl-{1S-[(pyridin-2-ylmethyl)-carbamoyl]-ethyl}-amino)-4-oxo-4H-benzo[d][1,3]oxazin-6-yl]-carbamic acid tert-butyl ester] | 107.0 |
| 1.1 | > 12.5 | Cc1c(NC(=O)OC(C)(C)C)ccc2nc(N(C)[C@@H](C)C(=O)NCc3cccnc3)oc(=O)c12 [Compound No.72, [5-Methyl-2-(methyl-{1S-[(pyridin-3-ylmethyl)-carbamoyl]-ethyl}-amino)-4-oxo-4H-benzo[d][1,3]oxazin-6-yl]-carbamic acid tert-butyl ester] | 90.7 |
| 1.5 | > 12.5 | Cc1c(NC(=O)OC(C)(C)C)ccc2nc(N(C)[C@@H](C)C(=O)NCCc3ccccn3)oc(=O)c12 [Compound No.74, (5-Methyl-2-{methyl-[1S-(2-pyridin-2-ylethylcarbamoyl)-ethyl]-amino}-4-oxo-4H-benzo[d][1,3]oxazin-6-yl)-carbamic acid tert-butyl ester] | 95.3 |
